# Assay results from patent US5807745A, “Method of inhibiting PADGEM-mediated or ELAM-1-mediated leukocyte adhesion using an inhibitor comprising a Le^x core component” (New England Medical Center Hospitals, Inc., priority 1995, dated 1998).
# B1: purified PADGEM: purified platelet activation dependent granule-external membrane protein (protein, UniProt P16109 42-830, looked up)
# P-selectin: WTYHYSTKAYSWNISRKYCQNRYTDLVAIQNKNEIDYLNKVLPYYSSYYWIGIRKNNKTWTWVGTKKALTNEAENWADNEPNNKRNNEDCVEIYIKSPSAPGKWNDEHCLKKKHALCYTASCQDMSCSKQGECLETIGNYTCSCYPGFYGPECEYVRECGELELPQHVLMNCSHPLGNFSFNSQCSFHCTDGYQVNGPSKLECLASGIWTNKPPQCLAAQCPPLKIPERGNMTCLHSAKAFQHQSSCSFSCEEGFALVGPEVVQCTASGVWTAPAPVCKAVQCQHLEAPSEGTMDCVHPLTAFAYGSSCKFECQPGYRVRGLDMLRCIDSGHWSAPLPTCEAISCEPLESPVHGSMDCSPSLRAFQYDTNCSFRCAEGFMLRGADIVRCDNLGQWTAPAPVCQALQCQDLPVPNEARVNCSHPFGAFRYQSVCSFTCNEGLLLVGASVLQCLATGNWNSVPPECQAIPCTPLLSPQNGTMTCVQPLGSSSYKSTCQFICDEGYSLSGPERLDCTRSGRWTDSPPMCEAIKCPELFAPEQGSLDCSDTRGEFNVGSTCHFSCDNGFKLEGPNNVECTTSGRWSATPPTCKGIASLPTPGVQCPALTTPGQGTMYCRHHPGTFGFNTTCYFGCNAGFTLIGDSTLSCRPSGQWTAVTPACRAVKCSELHVNKPIAMNCSNLWGNFSYGSICSFHCLEGQLLNGSAQTACQENGHWSTTVPTCQAGPLTIQEALTYFGGAVASTIGLIMGGTLLALLRKRFRQKDDGKCPLNPHSHLGTYGVFTNAAFDPSP
# Tests used:
# [1] = system: adherence of activated platelets to neutrophils (PADGEM-mediated); assay: Phase-contrast cell adhesion assay: thrombin-activated platelets with neutrophils; type: cell-based, human; conditions: LNF isomers, FIG. 6
# Procedure: Platelets were isolated by gel filtration from fresh anticoagulated blood obtained from normal human donors (Hsu-Lin et al., J. Biol. Chem., 259: 9121-9126 (1984)). Activated platelets were prepared by incubating cells without stirring for 20 minutes at 22° C. with thrombin at a final concentration of 0.25 U/ml. Fresh platelets were used in cell adhesion assays within 30 minutes of preparation.
# Neutrophils were prepared by the method of English and Anderson (J. Immunol. Method, 5: 249-252 (1974)). The neutrophil preparations were greater than 95% pure by light microscopy. Monocytes were prepared by washing the mono-nuclear leukocyte fraction twice with human serum-5 mM EDTA and incubating the cells in RPMI 1640--10% fetal calf serum in sterile […] dishes for 2 hours at 37° C. The dishes were washed three times with PBS at 37° C. to remove nonadherent cells. PBS at 0° C. was added, and the cells were incubated at 4° C. for 1 hour. Adherent cells were gently detached with a rubber policeman, washed in PBS, and resuspended in RPMI 1640--1% fetal calf serum. Lymphocytes were obtained by washing the nonadherent cells with PBS and resuspending these cells in RPMI 1640--1% fetal calf serum. The purity of these preparations was established to be greater than 90% by light microscopy using Wright esterase and nonspecific esterase stains.
# Twenty microliters of platelet suspension (2×10^8 /ml) was mixed with 20 μl of cell suspension (2×10^6 /ml) and incubated for 20 minutes at 22° C. in a microfuge tube. An aliquot of the cell suspension was then in a Neubauer chamber and evaluated by light microscropy using an Olympus model BH-2 microscope. Three samples from each assay were evaluated by counting 200 cells and scoring the percentage of cells with two or more adherent platelets (Jungi et al., Blood 67: 629-636 (1986)). Antibody inhibition studies were performed by preincubating cells (20 μl; 3×10^6 /ml) with 20 μl of antibody solution for 20 minutes at 22° C. Subsequently, 20 μl of platelet suspension was added, and the mixture was incubated for 20 minutes at 22° C. Samples were analyzed as above.
# To identify the PADGEM recognition site on leukocytes that mediates the binding of activated platelets, monoclonal antibodies directed at various antigens on the surface of monocytes and neutrophils were tested for their ability to inhibit the interaction of these cells with activated platelets, using the phase-contrast cell adhesion assay described in Example 2 (FIG. 1 and FIG. 2). The antibodies were raised against various leukocytes and myeloid cell lines and are directed at leukocyte antigens. […] The percentage of cells displaying two or more adherent platelets was determined as described in Example 2.
# [2] = system: cell viability; assay: Cell viability by trypan blue exclusion; type: cell-based; conditions: trypan blue exclusion method
# [3] = system: glycoprotein IIb-IIIa dependent platelet aggregation; assay: ADP-induced platelet aggregation; type: cell-based, human; conditions: specificity control
# Description: To address the possibility of a nonspecific effect of LNF III on cell-cell interaction involving platelets, the effect of LNF III on ADP-induced platelet aggregation was examined.
# [4] = system: binding of HL60 cells to COS/PADGEM cells; assay: COS cell-PADGEM adhesion assay with labelled HL60 cells; type: cell-based, human
# Procedure: COS cells (1×10^5) were transfected with 40 μg of the resulting PADGEM expression vector by calcium phosphate precipitation. Coverslips (12×12 mm) were added to each culture. After 48 hours of growth in DMEM--10% fetal calf serum, the COS cells were confluent.
# HL60 cells (1×10^7), maintained in culture, were washed and resuspended in 0.5 ml of serum-free RPMI 1640. The cells were labeled with 270 μCi of ^111 In oxine (Callow et al., Arch. Surg., 117: 1447-1455 (1982)) and 10 μg of bis-carboxyethyl-carboxyfluorescein (Kolber et al., J. Immunol. Meth., 108: 255-264 (1988)) by incubation at 37° C. for 30 minutes. After washing with RPMI 1640--1% bovine serum albumin, the cells (1×10^6) were incubated with the coverslips containing confluent COS cell transfectants, in the presence or absence of LNF isomers, for 20 minutes at 37° C. The coverslips were washed with RPMI 1640, and duplicate coverslips were assayed for ^111 In activity. Alternatively, samples were evaluated for HL60 cell adherence by fluorescence and phase-contrast microscopy using a Zeiss Axioscope microscope in a blind assay. Inhibition of the binding of COS/PADGEM cells to U937 cells by the antibody 80H5 was performed in experiments identical to the procedure described above.
# The results of a COS cell-PADGEM adhesion assay, in which the binding of ^111 In and bis-carboxyethyl-carboxyfluorescein-lableled HL60 cells to COS/PADGEM cells was monitored by assaying ^111 In activity (Example 2), are shown in FIG. 7. […] The inhibitory effect of LNF II was more apparent when the LNF to PADGEM ratio was high. […] It is possible that minor contamination of the LNF II preparation with LNF III can account for the inhibitory activity observed.
# The inhibitory effects of LNF I, II, and III on the interaction of HL60 cells and COS/PADGEM was also studied morphologically in a blind assay. In these experiments, the binding of fluorescently labeled HL60 cells to COS/PADGEM cells was scored (Example 2).
# [5] = system: Mel-14; conditions: literature report; cited from earlier work
# [6] = system: PADGEM; conditions: literature reports; cited from earlier work
molecule,measurement,setting,value
"CC(=O)N[C@H]1[C@H](O[C@H]2[C@@H](O)[C@@H](CO)O[C@@H](O[C@H]3[C@H](O)[C@@H](O)C(O)O[C@@H]3CO)[C@@H]2O)O[C@H](CO)[C@@H](O[C@@H]2O[C@H](CO)[C@H](O)[C@H](O)[C@H]2O)[C@@H]1O[C@@H]1O[C@@H](C)[C@@H](O)[C@@H](O)[C@@H]1O (some centres unmarked) [LNF III, Galβ1-4(Fucα1-3)GlcNAcβ1-3Galβ1-4Glc]",IC50,"[1]; Homo sapiens, read-out: half-maximal inhibition of the adherence of activated platelets to neutrophils",~50 µg/mL
same,inhibitory activity on adherence of activated platelets to neutrophils,[1]; direct cell adhesion assay,effective inhibitor
same,cell viability,[2],did not alter cell viability
same,effect on ADP-induced platelet aggregation,[3],equivalent in the presence or absence of LNF III
same,inhibition of binding of radiolabeled HL60 cells to COS/PADGEM cells,"[4]; 111In activity, FIG. 7",significantly inhibited
same,inhibition of binding of fluorescently labeled HL60 cells to COS/PADGEM cells,[4]; scored morphologically in a blind assay,significant inhibitory activity
O=P(O)(O)OC[C@H]1OC(O)[C@@H](O)[C@@H](O)[C@@H]1O (some centres unmarked) [mannose 6-phosphate],inhibition of Mel-14-mediated lymphocyte-endothelial cell interaction,[5],inhibit
B1,inhibition of PADGEM-mediated binding of activated platelets to leukocytes,[6],inhibited
